# Measurements taken from ChEMBL document CHEMBL4346687, “Design, synthesis and biological evaluation of novel uracil derivatives bearing 1, 2, 3-triazole moiety as thymidylate synthase (TS) inhibitors and as potential antitumor drugs” (Eur J Med Chem, 2019).
# Test system: not listed separately
# Assay: Cytotoxicity against human HPAEpic cells assessed as reduction in cell viability after 24 hrs by MTT assay
# Type: cell-based
# Conditions: HPAEpic cells
row,Structure (SMILES),CC50 at 24 h
1,O=c1[nH]cc(S(=O)(=O)Nc2cccc(-c3cn(-c4cccc(Cl)c4)nn3)c2)c(=O)[nH]1,10.2 µM
2,O=c1[nH]cc(S(=O)(=O)Nc2cccc(-c3cn(-c4ccccc4)nn3)c2)c(=O)[nH]1,41.5 µM
3,O=c1[nH]cc(S(=O)(=O)Nc2ccc(-c3cn(-c4cccc(Cl)c4)nn3)cc2)c(=O)[nH]1,13.8 µM
4,O=c1[nH]cc(S(=O)(=O)Nc2ccc(-c3cn(-c4ccccc4Cl)nn3)cc2)c(=O)[nH]1,17 µM
5,O=c1[nH]cc(S(=O)(=O)Nc2ccc(-c3cn(-c4ccccc4F)nn3)cc2)c(=O)[nH]1,32.6 µM
6,Cc1cccc(-n2cc(-c3ccc(NS(=O)(=O)c4c[nH]c(=O)[nH]c4=O)cc3)nn2)c1,31.3 µM
7,O=c1[nH]cc(S(=O)(=O)Nc2ccc(-c3cn(-c4ccc(F)cc4)nn3)cc2)c(=O)[nH]1,> 100 µM
8,O=c1[nH]cc(S(=O)(=O)Nc2ccccc2-c2cn(-c3cccc(F)c3)nn2)c(=O)[nH]1,> 100 µM

# Test system: not listed separately
# Assay: Cytotoxicity against human IOSE-80 cells assessed as reduction in cell viability after 24 hrs by MTT assay
# Type: cell-based
# Conditions: 24 h
row,Structure (SMILES),CC50
1,O=c1[nH]cc(S(=O)(=O)Nc2cccc(-c3cn(-c4ccccc4)nn3)c2)c(=O)[nH]1,Non-Toxic
2,O=c1[nH]cc(S(=O)(=O)Nc2ccc(-c3cn(-c4ccc(F)cc4)nn3)cc2)c(=O)[nH]1,Non-Toxic
3,O=c1[nH]cc(S(=O)(=O)Nc2ccccc2-c2cn(-c3cccc(F)c3)nn2)c(=O)[nH]1,Non-Toxic

# Same assay, conditions: IOSE-80 cells
row,Structure (SMILES),CC50 at 24 h
1,O=c1[nH]cc(S(=O)(=O)Nc2cccc(-c3cn(-c4cccc(Cl)c4)nn3)c2)c(=O)[nH]1,18.9 µM
2,O=c1[nH]cc(S(=O)(=O)Nc2ccc(-c3cn(-c4cccc(Cl)c4)nn3)cc2)c(=O)[nH]1,14.3 µM
3,O=c1[nH]cc(S(=O)(=O)Nc2ccc(-c3cn(-c4ccccc4Cl)nn3)cc2)c(=O)[nH]1,22.2 µM
4,O=c1[nH]cc(S(=O)(=O)Nc2ccc(-c3cn(-c4ccccc4F)nn3)cc2)c(=O)[nH]1,> 100 µM
5,Cc1cccc(-n2cc(-c3ccc(NS(=O)(=O)c4c[nH]c(=O)[nH]c4=O)cc3)nn2)c1,29.3 µM

# Test system: not listed separately
# Assay: (§1) Cytotoxicity against human GES-1 cells assessed as reduction in cell viability after 24 hrs by MTT assay
# Type: cell-based, GES1
# Conditions: GES-1 cells
row,Structure (SMILES),CC50 at 24 h
1,O=c1[nH]cc(S(=O)(=O)Nc2cccc(-c3cn(-c4cccc(Cl)c4)nn3)c2)c(=O)[nH]1,26.2 µM
2,O=c1[nH]cc(S(=O)(=O)Nc2cccc(-c3cn(-c4ccccc4)nn3)c2)c(=O)[nH]1,22.5 µM
3,O=c1[nH]cc(S(=O)(=O)Nc2ccc(-c3cn(-c4cccc(Cl)c4)nn3)cc2)c(=O)[nH]1,7.57 µM
4,O=c1[nH]cc(S(=O)(=O)Nc2ccc(-c3cn(-c4ccccc4Cl)nn3)cc2)c(=O)[nH]1,16.4 µM
5,O=c1[nH]cc(S(=O)(=O)Nc2ccc(-c3cn(-c4ccccc4F)nn3)cc2)c(=O)[nH]1,> 100 µM
6,Cc1cccc(-n2cc(-c3ccc(NS(=O)(=O)c4c[nH]c(=O)[nH]c4=O)cc3)nn2)c1,28.3 µM
7,O=c1[nH]cc(S(=O)(=O)Nc2ccc(-c3cn(-c4ccc(F)cc4)nn3)cc2)c(=O)[nH]1,> 100 µM

# Test system: GES1
# Assay: as §1
# Type: cell-based
# Conditions: ges1, 24 h
row,Structure (SMILES),CC50
1,O=c1[nH]cc(S(=O)(=O)Nc2ccccc2-c2cn(-c3cccc(F)c3)nn2)c(=O)[nH]1,Non-Toxic

# Test system: not listed separately
# Assay: (§2) Cytotoxicity against human L02 cells assessed as reduction in cell viability after 24 hrs by MTT assay
# Type: cell-based
# Conditions: L02 cells
row,Structure (SMILES),CC50 at 24 h
1,O=c1[nH]cc(S(=O)(=O)Nc2cccc(-c3cn(-c4cccc(Cl)c4)nn3)c2)c(=O)[nH]1,8.33 µM
2,O=c1[nH]cc(S(=O)(=O)Nc2cccc(-c3cn(-c4ccccc4)nn3)c2)c(=O)[nH]1,> 100 µM
3,O=c1[nH]cc(S(=O)(=O)Nc2ccc(-c3cn(-c4cccc(Cl)c4)nn3)cc2)c(=O)[nH]1,19 µM
4,O=c1[nH]cc(S(=O)(=O)Nc2ccc(-c3cn(-c4ccccc4Cl)nn3)cc2)c(=O)[nH]1,19.3 µM
5,O=c1[nH]cc(S(=O)(=O)Nc2ccc(-c3cn(-c4ccccc4F)nn3)cc2)c(=O)[nH]1,> 100 µM
6,Cc1cccc(-n2cc(-c3ccc(NS(=O)(=O)c4c[nH]c(=O)[nH]c4=O)cc3)nn2)c1,39 µM

# Test system: L02
# Assay: as §2
# Type: cell-based
# Conditions: l02, 24 h
row,Structure (SMILES),CC50
1,O=c1[nH]cc(S(=O)(=O)Nc2ccc(-c3cn(-c4ccc(F)cc4)nn3)cc2)c(=O)[nH]1,Non-Toxic
2,O=c1[nH]cc(S(=O)(=O)Nc2ccccc2-c2cn(-c3cccc(F)c3)nn2)c(=O)[nH]1,Non-Toxic

# Test system: A549
# Assay: cells
# Conditions: Homo sapiens, A549, 24 h
# Description: Antiproliferative activity against human A549 cells assessed as reduction in cell viability after 24 hrs by MTT assay
row,Structure (SMILES),IC50
1,O=c1[nH]cc(S(=O)(=O)Nc2cccc(-c3cn(-c4ccccc4)nn3)c2)c(=O)[nH]1,12.7 µM
2,O=c1[nH]cc(S(=O)(=O)Nc2ccc(-c3cn(-c4ccccc4Cl)nn3)cc2)c(=O)[nH]1,2.81 µM
3,O=c1[nH]cc(S(=O)(=O)Nc2ccc(-c3cn(-c4ccccc4F)nn3)cc2)c(=O)[nH]1,5.96 µM
4,Cc1cccc(-n2cc(-c3ccc(NS(=O)(=O)c4c[nH]c(=O)[nH]c4=O)cc3)nn2)c1,6.96 µM
5,O=c1[nH]cc(S(=O)(=O)Nc2ccc(-c3cn(-c4ccc(F)cc4)nn3)cc2)c(=O)[nH]1,9.72 µM
6,O=c1[nH]cc(S(=O)(=O)Nc2ccccc2-c2cn(-c3cccc(F)c3)nn2)c(=O)[nH]1,8.13 µM

# Molecules with a lower IC50, results first:
row,IC50,Structure (SMILES)
1,2.43 µM,O=c1[nH]cc(S(=O)(=O)Nc2cccc(-c3cn(-c4cccc(Cl)c4)nn3)c2)c(=O)[nH]1
2,2.31 µM,O=c1[nH]cc(S(=O)(=O)Nc2ccc(-c3cn(-c4cccc(Cl)c4)nn3)cc2)c(=O)[nH]1

# Test system: OVCAR-3
# Assay: cells
# Conditions: Homo sapiens, OVCAR-3, 24 h
# Description: Antiproliferative activity against human OVCAR3 cells assessed as reduction in cell viability after 24 hrs by MTT assay
row,Structure (SMILES),IC50
1,O=c1[nH]cc(S(=O)(=O)Nc2cccc(-c3cn(-c4ccccc4)nn3)c2)c(=O)[nH]1,> 20 µM
2,O=c1[nH]cc(S(=O)(=O)Nc2ccc(-c3cn(-c4ccccc4Cl)nn3)cc2)c(=O)[nH]1,4.27 µM
3,O=c1[nH]cc(S(=O)(=O)Nc2ccc(-c3cn(-c4ccccc4F)nn3)cc2)c(=O)[nH]1,8.03 µM
4,Cc1cccc(-n2cc(-c3ccc(NS(=O)(=O)c4c[nH]c(=O)[nH]c4=O)cc3)nn2)c1,7.49 µM
5,O=c1[nH]cc(S(=O)(=O)Nc2ccc(-c3cn(-c4ccc(F)cc4)nn3)cc2)c(=O)[nH]1,> 20 µM
6,O=c1[nH]cc(S(=O)(=O)Nc2ccccc2-c2cn(-c3cccc(F)c3)nn2)c(=O)[nH]1,> 20 µM

# Results, then the molecule that gave them:
row,IC50,Structure (SMILES)
1,3.41 µM,O=c1[nH]cc(S(=O)(=O)Nc2cccc(-c3cn(-c4cccc(Cl)c4)nn3)c2)c(=O)[nH]1
2,2.75 µM,O=c1[nH]cc(S(=O)(=O)Nc2ccc(-c3cn(-c4cccc(Cl)c4)nn3)cc2)c(=O)[nH]1

# Test system: SGC-7901
# Assay: cells
# Conditions: Homo sapiens, SGC-7901, 24 h
# Description: Antiproliferative activity against human SGC7901 cells assessed as reduction in cell viability after 24 hrs by MTT assay
row,Structure (SMILES),IC50
1,O=c1[nH]cc(S(=O)(=O)Nc2cccc(-c3cn(-c4ccccc4)nn3)c2)c(=O)[nH]1,17.2 µM
2,O=c1[nH]cc(S(=O)(=O)Nc2ccc(-c3cn(-c4ccccc4Cl)nn3)cc2)c(=O)[nH]1,2.68 µM
3,O=c1[nH]cc(S(=O)(=O)Nc2ccc(-c3cn(-c4ccccc4F)nn3)cc2)c(=O)[nH]1,7.27 µM
4,Cc1cccc(-n2cc(-c3ccc(NS(=O)(=O)c4c[nH]c(=O)[nH]c4=O)cc3)nn2)c1,17.4 µM
5,O=c1[nH]cc(S(=O)(=O)Nc2ccc(-c3cn(-c4ccc(F)cc4)nn3)cc2)c(=O)[nH]1,> 20 µM
6,O=c1[nH]cc(S(=O)(=O)Nc2ccccc2-c2cn(-c3cccc(F)c3)nn2)c(=O)[nH]1,> 20 µM

# Results, then the molecule that gave them:
row,IC50,Structure (SMILES)
1,3.95 µM,O=c1[nH]cc(S(=O)(=O)Nc2cccc(-c3cn(-c4cccc(Cl)c4)nn3)c2)c(=O)[nH]1
2,2.46 µM,O=c1[nH]cc(S(=O)(=O)Nc2ccc(-c3cn(-c4cccc(Cl)c4)nn3)cc2)c(=O)[nH]1

# Test system: HepG2
# Assay: cells
# Conditions: Homo sapiens, HepG2, 24 h
# Description: Antiproliferative activity against human HepG2 cells assessed as reduction in cell viability after 24 hrs by MTT assay
row,Structure (SMILES),IC50
1,O=c1[nH]cc(S(=O)(=O)Nc2cccc(-c3cn(-c4ccccc4)nn3)c2)c(=O)[nH]1,11.2 µM
2,O=c1[nH]cc(S(=O)(=O)Nc2ccc(-c3cn(-c4ccccc4Cl)nn3)cc2)c(=O)[nH]1,2.23 µM
3,O=c1[nH]cc(S(=O)(=O)Nc2ccc(-c3cn(-c4ccccc4F)nn3)cc2)c(=O)[nH]1,> 20 µM
4,Cc1cccc(-n2cc(-c3ccc(NS(=O)(=O)c4c[nH]c(=O)[nH]c4=O)cc3)nn2)c1,> 20 µM
5,O=c1[nH]cc(S(=O)(=O)Nc2ccc(-c3cn(-c4ccc(F)cc4)nn3)cc2)c(=O)[nH]1,> 20 µM
6,O=c1[nH]cc(S(=O)(=O)Nc2ccccc2-c2cn(-c3cccc(F)c3)nn2)c(=O)[nH]1,> 20 µM

# Other lines, results leading:
row,IC50,Structure (SMILES)
1,4.2 µM,O=c1[nH]cc(S(=O)(=O)Nc2cccc(-c3cn(-c4cccc(Cl)c4)nn3)c2)c(=O)[nH]1
2,2.02 µM,O=c1[nH]cc(S(=O)(=O)Nc2ccc(-c3cn(-c4cccc(Cl)c4)nn3)cc2)c(=O)[nH]1
